Assay results as given in publication PMC8746705, “Comparison of Experimental Strategies to Study L-Type Amino Acid Transporter 1 (LAT1) Utilization by Ligands” (Molecules, 2021).

What was measured:
[1] = molecular target: LAT1 (Mus musculus, UniProt Q9Z127); test: Concentration-dependent cellular uptake into BV2 cells, Eadie–Hofstee analysis, Transport Type 1 (LAT1); format: cell-based; conditions: for Km / Transport Type 1 (LAT1) Vmax: 1–200 µM, 30 min, BV2, Eadie–Hofstee, mean ± SD, n = 3; for Cellular uptake: BV2 cells
Chain of LAT1 (Mus musculus, UniProt Q9Z127) (Q9Z127 whole entry): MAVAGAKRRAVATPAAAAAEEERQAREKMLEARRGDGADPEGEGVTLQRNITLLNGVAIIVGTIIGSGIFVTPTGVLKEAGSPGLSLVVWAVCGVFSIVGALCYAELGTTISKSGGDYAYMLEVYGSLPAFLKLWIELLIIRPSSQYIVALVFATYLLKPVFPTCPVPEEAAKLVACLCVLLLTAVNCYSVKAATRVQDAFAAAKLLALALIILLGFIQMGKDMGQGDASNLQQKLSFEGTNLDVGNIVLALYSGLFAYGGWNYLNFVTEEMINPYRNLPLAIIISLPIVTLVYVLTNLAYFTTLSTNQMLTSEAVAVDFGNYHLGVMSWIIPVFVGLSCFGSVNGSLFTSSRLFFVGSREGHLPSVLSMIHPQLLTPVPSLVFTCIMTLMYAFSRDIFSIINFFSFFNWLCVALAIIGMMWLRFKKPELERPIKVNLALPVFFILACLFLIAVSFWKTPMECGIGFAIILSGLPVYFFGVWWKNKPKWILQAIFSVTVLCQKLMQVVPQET
Chain of LAT1 (Mus musculus, UniProt Q9Z127) (P10852 whole entry partner): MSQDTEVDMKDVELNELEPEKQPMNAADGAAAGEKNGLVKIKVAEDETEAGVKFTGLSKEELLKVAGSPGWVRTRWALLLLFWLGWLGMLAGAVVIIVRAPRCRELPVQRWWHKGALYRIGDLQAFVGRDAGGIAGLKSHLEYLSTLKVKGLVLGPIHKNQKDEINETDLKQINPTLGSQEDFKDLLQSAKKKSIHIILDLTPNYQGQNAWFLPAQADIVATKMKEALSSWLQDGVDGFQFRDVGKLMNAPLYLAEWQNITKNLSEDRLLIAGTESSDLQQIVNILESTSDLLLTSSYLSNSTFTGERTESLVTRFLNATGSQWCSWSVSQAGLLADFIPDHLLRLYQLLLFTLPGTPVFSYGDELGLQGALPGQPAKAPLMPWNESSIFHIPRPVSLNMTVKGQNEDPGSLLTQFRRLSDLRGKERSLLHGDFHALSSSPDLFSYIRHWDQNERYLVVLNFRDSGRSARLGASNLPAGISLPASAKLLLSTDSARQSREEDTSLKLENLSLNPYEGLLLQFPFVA
Method in brief: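 Mouse BV2 microglia incubated 30 min at 37 °C in HBSS with compounds at 1–200 μM. Intracellular compound quantified by LC-MS/MS (positive ESI, C18 column) and normalized to total protein. Transport components resolved from Michaelis-Menten kinetics by Eadie–Hofstee analysis.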

[2] = Time-dependent cellular uptake of compounds into BV2 cells (LC-MS/MS); format: cell-based, mouse; conditions: mouse, BV2 microglia cells, 100 µM compound, 1–60 min, mean ± SD, n = 3, read-out: T½ of cellular uptake
Method in brief: (§1)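 BV2 cells were incubated with 100 μM compound in HBSS at 37 °C for 1–60 min, washed ice-cold and lysed in 0.1 M NaOH. Intracellular compound was quantified by positive-mode ESI LC-MS/MS against internal-standard calibration curves and normalised to Bradford protein content.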

[3] = test system: immortalized mouse microglia (BV2); test: as above; format: cell-based; conditions: for Max. cellular uptake: 100 µM compound, 1–60 min, mean ± SD, n = 3
Method in brief: as §1

[4] = test system: LAT1; test: Quantitative expression of LAT1 on the BV2 plasma membrane (LC-MS proteomics); format: cell-based, mouse; conditions: BV2 cells incubated 24 h; normalized to Na+/K+ATPase; compared to untreated control
Procedure: The protein expression levels of LAT1, in the plasma membrane fractions of BV2 cells were quantified using multiplexed MRM analysis according to the protocol described by Uchida et al.. First, the crude membrane fractions were isolated from three distinct sets of cell culture plates using Membrane Protein Extraction Kit (BioVision Incorporated, Milpitas, CA, USA) according to the manufacturer’s instructions. The protein content for each fraction was measured by Bio-Rad Protein Assay, based on the Bradford dye-binding method (EnVision, Perkin Elmer, Inc., Waltham, MA, USA). A total amount of 50 µg protein from each fraction was solubilized/denatured in 7 M guanidine hydrochloride, 0.5 M Tris-HCl and 10 mM EDTA-Na. The proteins were then reduced by dithiothreitol (1:50, w/w) and S-carboxymethylated by iodoacetamide (1:20, w/w). The alkylated proteins were precipitated by methanol/chloroform/water (4:1:3) and centrifuged at 18,000× g for 5 min at 4 °C. The pellet was resuspended in 6 M urea and mixed for 10 min at room temperature before the dilution with 0.1 M Tris-HCl (pH 8.5) to a final concentration of 1.2 M urea, and dissolved completely by intermittent sonication (Branson 3510, Danbury, CT, USA). The dissolved proteins were first digested with LysC (1/100, w/w) and 0.05% ProteaseMax (Promega Biotech AB, Nacka, Sweden) for 3 h at room temperature. Then, the samples were spiked with 10 µL (30 fmol) of the labelled peptides for absolute quantification (JPT Peptide Technologies GmbH, Berlin, Germany) (Table S2). The samples were incubated with (1/100, w/w) TPCK-Trypsin (Promega Biotech AB, Nacka, Sweden) for 18 h at 37 °C. The tryptic digestion was then quenched by adding 40 µL of 5% formic acid. The samples were then centrifuged at 18,000× g for 5 min at 4 °C, and the supernatants were transferred to vials for analysis.
The digested peptides were analyzed using an ultra-performance liquid chromatography system coupled with a triple quadrupole mass spectrometer with a heated electrospray ionization source in the positive mode (UPLC 1290 and MSD 6495, Agilent Technologies, Santa Clara, CA, USA). A total amount of 20 µL of the digested peptides (10 µg) was separated using AdvanceBio Peptide Map 2.1 × 250 mm, 2.7 μm column (Agilent Technologies, Santa Clara, CA, USA) and LC eluents of 0.1% formic acid in water (A) and acetonitrile (B). The peptides were eluted following a constant flow rate of 0.3 mL/min and a gradient of 2–7% B for 2 min, followed by 7–30% B for 48 min, 30–45% B for 3 min, and 45–80% B for 2.5 min before re-equilibrating the column again for 4.5 min. LAT1 was quantified based on the ratio between the light and heavy standard peptides, as described previously (Table S2). Data was acquired using Agilent MassHunter Workstation Acquisition (Agilent Technologies, Data Acquisition for Triple Quadrupole, version B.03.01) and processed by using Skyline software (version 20.1). The results were normalized to a housekeeping protein Na+/K+ATPase and expressed as fmol/µg of the total amount of protein in the samples.

For NC(Cc1cccc(C(=O)Oc2ccc(-c3ccc(-c4ccc5c(c4)COC5=O)s3)cc2)c1)C(=O)O (stereo not drawn) [Compound 1], the Km [1] was 116 ± 72 µM, the “Transport Type 1 (LAT1) Vmax” value [1] was 750 ± 435 pmol/mg/min and the “Cellular uptake” value [1] was “highest cellular uptake”. The half-life at 100 μM [2] was 9.11 ± 1.52 min and the Max. cellular uptake [3] was 176.0 ± 9.0 nmol/mg of protein.
In the case of C[C@H](C(=O)Nc1cccc(C[C@H](N)C(=O)O)c1)c1cccc(C(=O)c2ccccc2)c1 [Compound 2], the “LAT1 expression on the plasma membrane” value [4] is reported as “downregulated LAT1 expression”, the Km [1] is reported as 0.8 ± 0.1 µM and the “Transport Type 1 (LAT1) Vmax” value [1] is reported as 0.09 ± 0.01 pmol/mg/min. For the same molecule, the half-life at 100 μM [2] was 1.97 ± 0.66 min and the Max. cellular uptake [3] was 22.31 ± 1.34 nmol/mg of protein.
In the case of C[C@H](C(=O)Oc1cccc(C[C@H](N)C(=O)O)c1)c1cccc(C(=O)c2ccccc2)c1 [Compound 4], the Km [1] is reported as 41 ± 6 µM, the “Transport Type 1 (LAT1) Vmax” value [1] is reported as 88 ± 9 pmol/mg/min and the “Cellular uptake” value [1] is reported as “effectively transported into the cells”. The half-life at 100 μM [2] was 1.86 ± 0.42 min and the Max. cellular uptake [3] was 4.17 ± 0.19 nmol/mg of protein.
In the case of COc1cc(C=CC(=O)NCc2cccc(CC(N)C(=O)O)c2)ccc1O (stereo not drawn) [Compound 5], the “LAT1 expression on the plasma membrane” value [4] is reported as “downregulated LAT1 expression”, the Km [1] is reported as 2.1 ± 0.4 µM and the “Transport Type 1 (LAT1) Vmax” value [1] is reported as 0.11 ± 0.01 pmol/mg/min. The half-life at 100 μM [2] was less than 1 min, the Max. cellular uptake [3] was “cannot be calculated” and the “LAT1-substrate or LAT1-binder” value ([3]; concluded from time-dependent uptake, 100 µM) was “LAT1-binders rather than substrates”.
For COc1cc(/C=C/C(=O)Oc2cccc(C[C@H](N)C(=O)O)c2)ccc1O [Compound 7], the Km [1] was 0.3 ± 0.1 µM, the “Transport Type 1 (LAT1) Vmax” value [1] was 0.09 ± 0.03 pmol/mg/min and the half-life at 100 μM [2] was 7.35 ± 3.44 min. For the same molecule, the Max. cellular uptake [3] was 21.14 ± 2.93 nmol/mg of protein.
For N[C@@H](Cc1cccc(NC(=O)c2ccccc2O)c1)C(=O)O [Compound 8], the “LAT1 expression on the plasma membrane” value [4] was “did not have any effect on LAT1 expression”, the half-life at 100 μM [2] was 2.65 ± 0.6 min and the Max. cellular uptake [3] was 8.05 ± 0.40 nmol/mg of protein.
With C[C@H](C(=O)Nc1cccc(C[C@H](N)C(=O)O)c1)c1ccc(-c2ccccc2)c(F)c1 [Compound 9] the “LAT1 expression on the plasma membrane” value [4] was “did not have any effect on LAT1 expression”, the half-life at 100 μM [2] was greater than 300 min and the Max. cellular uptake [3] was 101.6 ± 86.1 nmol/mg of protein.
With C[C@H](C(=O)Oc1cccc(C[C@H](N)C(=O)O)c1)c1ccc(-c2ccccc2)c(F)c1 [Compound 12] the “LAT1 expression on the plasma membrane” value [4] was “did not have any effect on LAT1 expression”, the half-life at 100 μM [2] was 19.2 ± 5.71 min and the Max. cellular uptake [3] was 36.12 ± 4.17 nmol/mg of protein.
For COc1ccc2cc([C@H](C)C(=O)Oc3cccc(C[C@H](N)C(=O)O)c3)ccc2c1 [Compound 15], the Km [1] was 9.3 ± 2.7 µM, the “Transport Type 1 (LAT1) Vmax” value [1] was 280 ± 65 pmol/mg/min and the “Cellular uptake” value [1] was “highest cellular uptake”. The half-life at 100 μM [2] was 12.5 ± 3.62 min and the Max. cellular uptake [3] was 29.09 ± 2.84 nmol/mg of protein.
